Experimental data: patent publication US7227023B2, “Quinoline 3-amino chroman derivatives” (Wyeth, priority 2003, dated 2007)
Where a name gives a salt, the structure may show the parent alone.

Tests used:
human 5-HT1A receptors = molecular target: T1, human 5-HT1A receptors (Homo sapiens, UniProt P08908); assay: [3H] 8-OH-DPAT displacement, affinity for the 5-HT1A receptor; type: binding; details: CHO cells stably transfected with human 5-HT1A receptors
T1 construct: expressed in transfected cells; host or cells: CHO cells, stably transfected
T1 sequence (P08908 1-422): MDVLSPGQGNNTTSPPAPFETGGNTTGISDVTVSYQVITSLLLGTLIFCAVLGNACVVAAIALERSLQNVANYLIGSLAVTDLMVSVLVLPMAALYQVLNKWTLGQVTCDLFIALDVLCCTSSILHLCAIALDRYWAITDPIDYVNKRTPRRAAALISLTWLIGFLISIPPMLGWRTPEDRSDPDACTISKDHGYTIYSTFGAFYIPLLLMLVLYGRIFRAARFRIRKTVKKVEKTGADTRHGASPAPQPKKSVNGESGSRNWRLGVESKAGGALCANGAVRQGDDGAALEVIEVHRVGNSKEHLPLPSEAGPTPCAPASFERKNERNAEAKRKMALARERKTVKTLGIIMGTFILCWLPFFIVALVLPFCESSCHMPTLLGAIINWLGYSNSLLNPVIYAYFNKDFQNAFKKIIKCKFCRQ
Description: High affinity for the serotonin 5-HT1A receptor was established by testing the claimed compound's ability to displace [^3H] 8-OH-DPAT (dipropylaminotetralin) from the 5-HT1A serotonin receptor following a modification of the procedure of Hall et al. (J. Neurochem., 1985, 44: 1685) which utilizes CHO cells stably transfected with human 5-HT1A receptors.

[1] = molecular target: T2, cloned human 5-HT1A receptors (Homo sapiens, UniProt P08908); assay: 35S-GTPγS binding assay, agonist activity at 5-HT1A receptors; type: biochemical; details: membranes containing cloned human 5-HT1A receptors; for EC50: read-out: 5-HT1A Function EC50; for 5-HT1A Function Emax (maximum stimulatory effect) / Emax: value in parentheses; for 5-HT1A Function Emax (maximum stimulatory effect): in % (unit assumed); for Emax: read-out: 5-HT1A Function Emax (maximum stimulatory effect)
T2 construct: expressed in transfected cells
T2 sequence (P08908 1-422): T1 sequence (P08908 1-422)
Description: The agonist activity at 5-HT1A receptors was established by using a ^35S-GTPγS binding assay similar to that used by Lazareno and Birdsall (Br. J. Pharmacol., 1993, 109:1120). The binding assay determines the test compound's ability to affect the binding of ^35S-GTPγS to membranes containing cloned human 5-HT1A receptors. Agonists produce an increase in binding whereas antagonists produce no increase but rather reverse the effects of the standard agonist 8-OH-DPAT. The test compound's maximum stimulatory effect is represented as the Emax, while its potency is defined by the EC50.

5-HT Transporter = molecular target: T3, 5-HT Transporter (Rattus norvegicus, UniProt P31652); assay: 3H-paroxetine displacement, affinity for the serotonin transporter; type: binding; details: male rat cortical membranes
T3 construct: ability to displace ^3H-paroxetine from male rat cortical membranes; from tissue; host or cells: male rat cortex (membranes)
T3 sequence (P31652 whole entry): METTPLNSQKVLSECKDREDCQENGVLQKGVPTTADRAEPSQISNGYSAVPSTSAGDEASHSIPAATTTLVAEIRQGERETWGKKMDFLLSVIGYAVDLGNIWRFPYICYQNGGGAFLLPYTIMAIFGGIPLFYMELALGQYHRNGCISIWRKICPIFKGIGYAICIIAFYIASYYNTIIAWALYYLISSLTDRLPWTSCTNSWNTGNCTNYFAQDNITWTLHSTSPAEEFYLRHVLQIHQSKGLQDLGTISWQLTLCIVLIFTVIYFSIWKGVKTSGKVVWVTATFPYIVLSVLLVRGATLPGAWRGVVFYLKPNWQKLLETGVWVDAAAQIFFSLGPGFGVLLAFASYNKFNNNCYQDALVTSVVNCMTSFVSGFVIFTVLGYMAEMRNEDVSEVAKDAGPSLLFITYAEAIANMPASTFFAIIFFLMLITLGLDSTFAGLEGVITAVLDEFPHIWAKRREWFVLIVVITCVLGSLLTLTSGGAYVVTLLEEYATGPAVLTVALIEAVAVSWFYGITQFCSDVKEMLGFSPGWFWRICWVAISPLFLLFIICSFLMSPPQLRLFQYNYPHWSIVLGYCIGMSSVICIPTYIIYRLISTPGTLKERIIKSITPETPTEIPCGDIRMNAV

Ki (human 5-HT1A receptors) | EC50 [1] | 5-HT1A Function Emax (maximum stimulatory effect) [1] | Ki (5-HT Transporter) | Emax [1] | melting point | SMILES
314 nM | 120 nM | 85.87 | – | – | – | Fc1ccc2[nH]cc(CCCNC3COc4ccc5ncccc5c4C3)c2c1 (single isomer, unassigned; (-)) [Compound 1b, (−)-N-[3-(5-fluoro-1H-indol-3-yl)propyl]-2,3-dihydro-1H-pyrano[3,2-f]quinolin-2-amine]
16.2 nM | 170 nM | 100 | 4.2 nM | – | – | Fc1ccc2[nH]cc(CCCNC3COc4c(ccc5ncccc45)C3)c2c1 (single isomer, unassigned; (-)) [Compound 7b, (−)-N-[3-(5-fluoro-1H-indol-3-yl)propyl]-3,4-dihydro-2H-pyrano[2,3-f]quinolin-3-amine]
– | 1710 nM | – | 15 nM | 68.3% | – | CCCN(CCCc1c[nH]c2ccc(F)cc12)C1COc2c(ccc3ncccc23)C1 (stereo not shown) [Compound 8, N-[3-(5-fluoro-1H-indol-3-yl)propyl]-N-propyl-3,4-dihydro-2H-pyrano[2,3-f]quinolin-3-amine]
– | 320 nM | 74.80 | 2.83 nM | – | – | Fc1ccc2[nH]cc(CCCNC3COc4c(ccc5ncccc45)C3)c2c1 (single isomer, unassigned; (+)) [Compound 7a, (+)-N-[3-(5-fluoro-1H-indol-3-yl)propyl]-3,4,-dihydro-2H-pyrano[2,3-f]quinolin-3-amine]
– | – | – | – | – | > 180 °C | Fc1ccc2[nH]cc(CCCNC3COc4ccc5ncccc5c4C3)c2c1 (stereo not shown) (as salt: hydrochloride) [Compound 1, N-[3-(5-fluoro-1H-indol-3-yl)propyl]-2,3-dihydro-1H-pyrano[3,2-f]quinolin-2-amine]
210 nM | 630 nM | 54.72 | 8 nM | – | – | CCCN(CCCc1c[nH]c2ccc(F)cc12)C1COc2ccc3ncccc3c2C1 (single isomer, unassigned; (-)) [Compound 3, (−)-N-[3-(5-fluoro-1H-indol-3-yl)propyl]-N-propyl-2,3-dihydro-1H-pyran[3,2-f]quinolin-2-amine]
13.6 nM | 1200 nM | – | 2.83 nM | 100% | – | Fc1ccc2[nH]cc(CCCNC3COc4c(ccc5ncccc45)C3)c2c1 (stereo not shown) [Compound 7, N-[3-(5-fluoro-1H-indol-3-yl)propyl]-3,4-dihydro-2H-pyrano[2,3-f]quinolin-3-amine]
– | – | – | – | – | 106 °C (dec.) | CCCN(CCCc1c[nH]c2ccc(F)cc12)C1COc2ccc3ncccc3c2C1 (single isomer, unassigned; (+)) (as salt: hydrochloride) [Compound 4, (+)-N-[3-(5-fluoro-1H-indol-3-yl)propyl]-N-propyl-2,3-dihydro-1H-pyrano[3,2-f]quinolin-2-amine]
478 nM | 190 nM | – | 40 nM | 41.3% | – | CCCN(CCc1c[nH]c2ccc(F)cc12)C1COc2ccc3ncccc3c2C1 (stereo not shown) [Compound 6, N-[2-(5-fluoro-1H-indol-3-yl)ethyl]-N-propyl-2,3-dihydro-1H-pyrano[3,2-f]quinolin-2-amine]
62.6 nM | 180 nM | – | – | 75.8% | – | Fc1ccc2[nH]cc(CCCNC3COc4ccc5ncccc5c4C3)c2c1 (stereo not shown) [Compound 1, N-[3-(5-fluoro-1H-indol-3-yl)propyl]-2,3-dihydro-1H-pyrano[3,2-f]quinolin-2-amine]
– | – | – | – | – | > 148 °C | CCCN(CCCc1c[nH]c2ccc(F)cc12)C1COc2ccc3ncccc3c2C1 (stereo not shown) (as salt: hydrochloride) [Compound 2, N-[3-(5-fluoro-1H-indol-3-yl)propyl]-N-propyl-2,3-dihydro-1H-pyrano[3,2-f]quinolin-2-amine]
– | – | – | – | – | 134 °C (dec.) | CCCN(CCCc1c[nH]c2ccc(F)cc12)C1COc2c(ccc3ncccc23)C1 (stereo not shown) (as salt: hydrochloride) [Compound 8, N-[3-(5-fluoro-1H-indol-3-yl)propyl]-N-propyl-3,4-dihydro-2H-pyrano[2,3-f]quinolin-3-amine]
– | – | – | – | – | 83.5 °C (dec.) | CCCN(CCCc1c[nH]c2ccc(F)cc12)C1COc2ccc3ncccc3c2C1 (single isomer, unassigned; (-)) (as salt: hydrochloride) [Compound 3, (−)-N-[3-(5-fluoro-1H-indol-3-yl)propyl]-N-propyl-2,3-dihydro-1H-pyran[3,2-f]quinolin-2-amine]
239 nM | 300 nM | 99.92 | 19 nM | – | – | CCCN(CCCc1c[nH]c2ccc(F)cc12)C1COc2ccc3ncccc3c2C1 (single isomer, unassigned; (+)) [Compound 4, (+)-N-[3-(5-fluoro-1H-indol-3-yl)propyl]-N-propyl-2,3-dihydro-1H-pyrano[3,2-f]quinolin-2-amine]
– | – | – | – | – | 67 °C | CCCN(CCc1c[nH]c2ccc(F)cc12)C1COc2ccc3ncccc3c2C1 (stereo not shown) (as salt: hydrochloride) [Compound 6, N-[2-(5-fluoro-1H-indol-3-yl)ethyl]-N-propyl-2,3-dihydro-1H-pyrano[3,2-f]quinolin-2-amine]
– | – | – | – | – | 250 °C (dec.) | Fc1ccc2[nH]cc(CCCNC3COc4c(ccc5ncccc45)C3)c2c1 (single isomer, unassigned; (-)) (as salt: hydrochloride) [Compound 7b, (−)-N-[3-(5-fluoro-1H-indol-3-yl)propyl]-3,4-dihydro-2H-pyrano[2,3-f]quinolin-3-amine]
– | – | – | – | – | 300 °C (dec.) | Fc1ccc2[nH]cc(CCCNC3COc4c(ccc5ncccc45)C3)c2c1 (stereo not shown) (as salt: hydrochloride) [Compound 7, N-[3-(5-fluoro-1H-indol-3-yl)propyl]-3,4-dihydro-2H-pyrano[2,3-f]quinolin-3-amine]
– | 5940 nM | – | 1.18 nM | 100% | – | Fc1ccc2[nH]cc(CCCCNC3COc4c(ccc5ncccc45)C3)c2c1 (stereo not shown) [Compound 9, N-[4-(5-fluoro-1H-indol-3-yl)butyl]-3,4-dihydro-2H-pyrano[2,3-f]quinolin-3-amine]
91 nM | 2220 nM | – | 6.5 nM | 100% | – | CCCN(CCCc1c[nH]c2ccc(F)cc12)C1COc2ccc3ncccc3c2C1 (stereo not shown) [Compound 2, N-[3-(5-fluoro-1H-indol-3-yl)propyl]-N-propyl-2,3-dihydro-1H-pyrano[3,2-f]quinolin-2-amine]
– | – | – | – | – | 173 °C (dec.) | Fc1ccc2[nH]cc(CCCCNC3COc4c(ccc5ncccc45)C3)c2c1 (stereo not shown) (as salt: hydrochloride) [Compound 9, N-[4-(5-fluoro-1H-indol-3-yl)butyl]-3,4-dihydro-2H-pyrano[2,3-f]quinolin-3-amine]
23.9 nM | 730 nM | – | – | 100% | – | Fc1ccc2[nH]cc(CCCNC3COc4ccc5ncccc5c4C3)c2c1 (single isomer, unassigned; (+)) [Compound 1a, (+)-N-[3-(5-fluoro-1H-indol-3-yl)propyl]-2,3-dihydro-1H-pyrano[3,2-f]quinolin-2-amine]
– | – | – | – | – | 330 °C (dec.) | Fc1ccc2[nH]cc(CCCNC3COc4ccc5ncccc5c4C3)c2c1 (single isomer, unassigned; (+)) (as salt: hydrochloride) [Compound 1a, (+)-N-[3-(5-fluoro-1H-indol-3-yl)propyl]-2,3-dihydro-1H-pyrano[3,2-f]quinolin-2-amine]

SMILES | Ki (human 5-HT1A receptors) | EC50 [1] | 5-HT1A Function Emax (maximum stimulatory effect) [1] | Ki (5-HT Transporter) | Emax [1] | melting point
CCCN(CCCCc1c[nH]c2ccc(F)cc12)C1COc2c(ccc3ncccc23)C1 (stereo not shown) (as salt: hydrochloride) [Compound 10, N-[4-(5-fluoro-1H-indol-3-yl)butyl]-N-propyl-3,4-dihydro-2H-pyrano[2,3-f]quinolin-3-amine] | – | – | – | – | – | 164 °C (dec.)
Fc1ccc2[nH]cc(CCNC3COc4ccc5ncccc5c4C3)c2c1 (stereo not shown) (as salt: hydrochloride) [Compound 5] | – | – | – | – | – | 91 °C (dec.)
CCCN(CCCCc1c[nH]c2ccc(F)cc12)C1COc2c(ccc3ncccc23)C1 (stereo not shown) [Compound 10, N-[4-(5-fluoro-1H-indol-3-yl)butyl]-N-propyl-3,4-dihydro-2H-pyrano[2,3-f]quinolin-3-amine] | – | – | – | 12 nM | – | –
Fc1ccc2[nH]cc(CCNC3COc4ccc5ncccc5c4C3)c2c1 (stereo not shown) [Compound 5] | – | 5000 nM | – | 24 nM | 30% | –
